Patent publication US9381186B2, “Substituted chroman derivatives, medicaments and use in therapy” (MEI Pharma, Inc., priority 2004, dated 2016)
Where two headings read alike, the source gives them in different places.

How the values were obtained:
[1] = test system: NFF (neonatal foreskin fibroblasts); assay: Cytotoxicity (MTT proliferation assay) against neonatal foreskin fibroblasts; format: cell-based, Human
Protocol: (§1) The normal cell line NFF (neonatal foreskin fibroblasts) was a gift from Dr. Peter Parsons (Queensland Institute of Medical Research). RK (rabbit kidney) cells were obtained from Miller Whalley (Macquarie University). Both cell lines were cultured in RPMI supplemented with 10% FCS (CSL, Australia), penicillin (100 U/ml), streptomycin ([…]), L-glutamine (2 mM) and sodium bicarbonate (1.2 g/L), and cultured at 37° C. in a humidified atmosphere of 5% CO2
(§2) IC50 values were determined for each cell line. Cells were seeded in 96-well plates at an appropriate cell density as determined from growth kinetics analysis and cultured for 5 days in the absence and presence of the test compounds. Cell proliferation was assessed after the addition of 20 μl of 3-4,5 dimethylthiazol-2,5-diphenyl tetrazolium bromide (MTT, 2.5 mg/ml in PBS, Sigma) for 3-4 hrs at 37° C. according to manufacturer's instructions. IC50 values were calculated from semi-log plots of % of control proliferation on the y-axis against log dose on the x-axis.

[2] = test system: murine macrophages (RAW 264.7) stimulated with LPS; assay: Eicosanoid synthesis in LPS-stimulated RAW 264.7 macrophages; format: cell-based, mouse; settings: test compound 10 μM, LPS 50 ng/ml, 16 hrs; negative = inhibition
Protocol: The mouse macrophage cell line RAW 264.7 was cultured in DMEM supplemented with foetal calf serum (FCS), 2 mM glutamine and 50 U/ml penicillin/streptomycin. Subconfluent cells were detached from the flask by gentle scraping and 24-well plates seeded at 5×10^5 cells per well and allowed to adhere for 1 hr. Cells were then treated either test compound at a concentration of 10 μM (in 0.025% DMSO) or vehicle alone, and incubated for 1 hr. LPS 50 ng/ml (LPS—Sigma-Aldrich) was then added. After incubation for 16 hrs, culture media was collected and stored at −80° C. for ecosanoid measurements using enzyme immunometric assays (PGE2 and TXB2—Cayman Chemical).

[3] = test system: CP70; assay: MTT proliferation assay, ovarian CP70; format: cell-based
[4] = test system: CCRF-CEM; assay: MTT proliferation assay, leukaemia (ALL) CCRF-CEM; format: cell-based; settings: Homo sapiens, Table 2.2
Protocol: (§3) An cultures were supplemented with 10% FCS (CSL, Australia), penicillin (100 U/ml), streptomycin ([…]), L-glutamine (2 mM) and sodium bicarbonate (1.2 g/L), and cultured at 37° C. in a humidified atmosphere of 5% CO2. All cell lines were purchased from ATCC (Maryland, USA) except where noted.
as §2

[5] = test system: HPAC; assay: MTT proliferation assay, pancreatic HPAC; format: cell-based; settings: Homo sapiens, Table 2.2
[6] = test system: HTB-138; assay: MTT proliferation assay, glioma HTB-138; format: cell-based
Protocol: as §3, §2

[7] = test system: NCI-H460; assay: MTT proliferation assay, NSC lung NCI-H460; format: cell-based; settings: Homo sapiens; NSC Lung NCI-H460, Table 2.2
Protocol: as §3, §2

[8] = test system: PC3; assay: MTT proliferation assay, prostate PC3; format: cell-based; settings: Homo sapiens, PC-3
Protocol: as §3, §2

[9] = test system: MM200; assay: MTT proliferation assay, melanoma MM200; format: cell-based
[10] = test system: HT-29; assay: MTT proliferation assay, colorectal HT-29; format: cell-based; settings: Homo sapiens; Colorectal HT-29, Table 2.2; read-out: IC50
Protocol: as §3, §2

[11] = test system: MDA-MB-468; assay: MTT proliferation assay, breast MDA-MB-468; format: cell-based; settings: Homo sapiens
[12] = Oral pharmacokinetics in female BALB/c mice; format: in vivo, mouse; settings: female, BALB/c, mouse, serum, 50 mg/kg; oral; read-out: t1/2
Protocol: Compound No. 1 labelled above was prepared as homogenous suspensions in 1% CMC (m:v, water). The formulation was delivered orally by gavage to female BALB/c mice at a dosage of 50 mg/kg. Three animals were allocated to each timepoint (15 min, 30 min, 1 hr, 4 hr and 24 hr). At each respective timepoint, animals were euthanised by cervical dislocation and blood collected. The concentration of free compound was analysed by mass spectroscopy.

[13] = test system: RK (rabbit kidney) cells; assay: Cytotoxicity (MTT proliferation assay) against rabbit kidney cells; format: cell-based; settings: Oryctolagus cuniculus; rabbit kidney cells
Protocol: as §1, §2

[14] = test system: NCI-H23; assay: MTT proliferation assay, lung NCI-H23; format: cell-based; settings: Homo sapiens; Lung NCI-H23, Table 2.1; read-out: cytoxicity (IC50)
Protocol: as §3, §2

[15] = Ovarian CP70, Table 2.2, read-out: IC50
[16] = Glioma HTB-138, Table 2.2, read-out: IC50
[17] = Prostate PC3, Table 2.2, read-out: IC50
[18] = Melanoma MM200, Table 2.2, read-out: IC50
[19] = Breast MDA-MB-468, Table 2.2, read-out: IC50

IC50 [4]	IC50 [6, 16]	IC50 [7]	IC50 [8, 17]	IC50 [9, 18]	IC50 [10]	IC50 [11, 19]	Compound	Percentage change in PGE2 synthesis compared with vehicle [2]	Percentage change in TXB2 synthesis compared with vehicle [2]	IC50 [3, 15]	IC50 [5]	also measured
							N.N.[Cl][Pt][Cl] [Cisplatin, reference compound]					IC50 ([1]; non-transformed neonatal foreskin fibroblasts, read-out: IC50): 9 µM; IC50 ([1]; text says rabbit kidney cells, values are those of the NFF line of Table 1, read-out: degree of toxicity (IC50)): 9.9 µM
40.7 µM	60.2 µM	39.7 µM	37.5 ± 0.4 µM				Cc1ccc(C2(O)c3ccc(O)cc3OCC2c2ccc(O)cc2)cc1 (stereo not shown) [Compound 10]	−23.1%	−7.1%	27.5 µM	50 µM	
95.4 µM	86.3 µM	> 100 µM	> 100 µM	60.4 ± 9.2 µM			COc1ccc(C2(O)c3ccc(O)cc3OCC2c2ccc(O)cc2)cc1 (stereo not shown) [Compound 11]	−51.0%	−53.2%	52.7 ± 13 µM	> 100 µM	
> 100 µM	47.7 µM		32.8 ± 4.7 µM	> 100 µM	49.5 ± 32 µM	63.5 ± 4.6 µM	COc1ccc(C2COc3cc(OC)ccc3C2(O)c2ccc(OC)cc2)cc1 (stereo not shown) [Compound 12]	−68.3%	−34.0%	> 100 µM	86.3 ± 67 µM	
90.2 µM	> 100 µM	> 100 µM	74 ± 4 µM	72.8 µM		> 100 µM	Oc1ccc(C2COc3cc(O)ccc3C2(O)c2ccccc2)cc1 (stereo not shown) [Compound 14]	−23.6%	−40.9%	61.3 µM	> 100 µM	
81.8 µM	> 100 µM	> 100 µM	> 100 µM				COc1cccc(C2(O)c3ccc(O)cc3OCC2c2ccc(O)cc2)c1 (stereo not shown) [Compound 15]	−38.3%	−58.4%	65 ± 1.9 µM	> 100 µM	
16.6 µM	33.7 µM	31.6 ± 4.9 µM	28 ± 7.3 µM	14.6 µM			COc1ccc(C2=C(c3ccc(O)cc3)COc3cc(O)ccc32)cc1 [Compound 27]	−84.2%	−86.1%	22.4 ± 0.7 µM	27.6 ± 5.3 µM	
> 100 µM	62.4 µM	41.6 µM	49 ± 16 µM	64 ± 74 µM	29.4 ± 4.4 µM	30.5 ± 4 µM	COc1ccc(C2=C(c3ccc(OC)cc3)c3ccc(OC)cc3OC2)cc1 [Compound 28]	−85.1%	−50.1%	62 ± 44 µM	50.7 ± 35 µM	
66.6 µM	45.7 µM	43.5 ± 9.2 µM	45 ± 4.9 µM	33 ± 3 µM		> 100 µM	Oc1ccc(C2=C(c3ccccc3)c3ccc(O)cc3OC2)cc1 [Compound 30]	−60.7%	−62.6%	18 µM	41 ± 5.3 µM	
51.5 ± 12 µM	94.6 µM	76.3 µM	47 ± 8.4 µM	27.2 ± 4.6 µM	> 100 µM		COc1cccc(C2=C(c3ccc(O)cc3)COc3cc(O)ccc32)c1 [Compound 31]	−41.4%	−48.3%	53.4 µM	34.6 µM	
15.4 µM	29 ± 2 µM	39.3 ± 7.7 µM	13 ± 0.6 µM	12.6 ± 3.7 µM	24.8 ± 3.9 µM	9.2 ± 5.1 µM	COc1ccc(C2=C(c3ccc(O)cc3)COc3c2ccc(O)c3C)cc1 [Compound 32]	−71.1%	−34.4%	17.7 ± 5.9 µM	35.8 µM	
							Oc1ccc(C2=Cc3ccc(O)cc3OC2)cc1 [Phenoxodiol, reference compound]					IC50 ([9]; read-out: cytoxicity (IC50)): 6.2 ± 4.5 µM; IC50 ([3]; read-out: cytoxicity (IC50)): 11.1 ± 23.6 µM; half-life [12]: ~30 min; IC50 [13]: > 150 µM; IC50 ([6]; Glioma HTB-138, Table 2.1, read-out: cytoxicity (IC50)): 20.4 ± 17.5 µM; IC50 ([11]; MDA-MB-468, read-out: cytoxicity (IC50)): 8.9 ± 4.8 µM; IC50 ([8]; Prostate PC3, Table 2.1, read-out: cytoxicity (IC50)): 9.1 ± 8 µM; IC50 [14]: 8.3 ± 6.7 µM
